Test results reported in the NIST ThermoML archive (doi:10.1021/je025620p).
Numbers after ± are expanded uncertainties.

Assay: isobaric coefficient of expansion
Settings: 303.15 K, Liquid

C1CCCCC1 [cyclohexane]
Settings | isobaric coefficient of expansion
500 kPa | 0.00118 ± 2.9e-05 1/K
1000 kPa | 0.00117 ± 2.9e-05 1/K
2000 kPa | 0.00116 ± 2.8e-05 1/K
3000 kPa | 0.00115 ± 2.8e-05 1/K
4000 kPa | 0.00114 ± 2.8e-05 1/K
5000 kPa | 0.00113 ± 2.8e-05 1/K
6000 kPa | 0.00113 ± 2.8e-05 1/K
7000 kPa | 0.00112 ± 2.7e-05 1/K
8000 kPa | 0.00111 ± 2.7e-05 1/K
9000 kPa | 0.0011 ± 2.7e-05 1/K
10000 kPa | 0.00109 ± 2.7e-05 1/K
11000 kPa | 0.00109 ± 2.7e-05 1/K
12000 kPa | 0.00108 ± 2.6e-05 1/K
13000 kPa | 0.00107 ± 2.6e-05 1/K
14000 kPa | 0.00106 ± 2.6e-05 1/K
15000 kPa | 0.00106 ± 2.6e-05 1/K
16000 kPa | 0.00105 ± 2.6e-05 1/K
17000 kPa | 0.00104 ± 2.6e-05 1/K
18000 kPa | 0.00104 ± 2.5e-05 1/K
19000 kPa | 0.00103 ± 2.5e-05 1/K
20000 kPa | 0.00103 ± 2.5e-05 1/K
21000 kPa | 0.00102 ± 2.5e-05 1/K
22000 kPa | 0.00101 ± 2.5e-05 1/K
23000 kPa | 0.00101 ± 2.5e-05 1/K
24000 kPa | 0.001 ± 2.5e-05 1/K
25000 kPa | 0.000994 ± 2.4e-05 1/K
26000 kPa | 0.000988 ± 2.4e-05 1/K
27000 kPa | 0.000985 ± 2.4e-05 1/K
28000 kPa | 0.000977 ± 2.4e-05 1/K
29000 kPa | 0.000975 ± 2.4e-05 1/K
30000 kPa | 0.00097 ± 2.4e-05 1/K

CCCCCCC [heptane]
Settings | isobaric coefficient of expansion
500 kPa | 0.00125 ± 3.1e-05 1/K
1000 kPa | 0.00124 ± 3e-05 1/K
2000 kPa | 0.00123 ± 3e-05 1/K
3000 kPa | 0.00122 ± 3e-05 1/K
4000 kPa | 0.00121 ± 3e-05 1/K
5000 kPa | 0.00119 ± 2.9e-05 1/K
6000 kPa | 0.00118 ± 2.9e-05 1/K
7000 kPa | 0.00117 ± 2.9e-05 1/K
8000 kPa | 0.00116 ± 2.8e-05 1/K
9000 kPa | 0.00115 ± 2.8e-05 1/K
10000 kPa | 0.00114 ± 2.8e-05 1/K
11000 kPa | 0.00113 ± 2.8e-05 1/K
12000 kPa | 0.00112 ± 2.7e-05 1/K
13000 kPa | 0.00111 ± 2.7e-05 1/K
14000 kPa | 0.0011 ± 2.7e-05 1/K
15000 kPa | 0.00109 ± 2.7e-05 1/K
16000 kPa | 0.00108 ± 2.7e-05 1/K
17000 kPa | 0.00108 ± 2.6e-05 1/K
18000 kPa | 0.00107 ± 2.6e-05 1/K
19000 kPa | 0.00106 ± 2.6e-05 1/K
20000 kPa | 0.00105 ± 2.6e-05 1/K
21000 kPa | 0.00104 ± 2.6e-05 1/K
22000 kPa | 0.00104 ± 2.5e-05 1/K
23000 kPa | 0.00103 ± 2.5e-05 1/K
24000 kPa | 0.00102 ± 2.5e-05 1/K
25000 kPa | 0.00101 ± 2.5e-05 1/K
26000 kPa | 0.00101 ± 2.5e-05 1/K
27000 kPa | 0.001 ± 2.5e-05 1/K
28000 kPa | 0.000995 ± 2.4e-05 1/K
29000 kPa | 0.000988 ± 2.4e-05 1/K
30000 kPa | 0.000983 ± 2.4e-05 1/K

CCCCCC [hexane]
Settings | isobaric coefficient of expansion
500 kPa | 0.00135 ± 3.3e-05 1/K
1000 kPa | 0.00135 ± 3.3e-05 1/K
2000 kPa | 0.00133 ± 3.3e-05 1/K
2700 kPa | 0.00132 ± 3.2e-05 1/K
4000 kPa | 0.0013 ± 3.2e-05 1/K
4900 kPa | 0.00129 ± 3.2e-05 1/K
6000 kPa | 0.00126 ± 3.1e-05 1/K
7000 kPa | 0.00125 ± 3.1e-05 1/K
8000 kPa | 0.00124 ± 3e-05 1/K
9000 kPa | 0.00122 ± 3e-05 1/K
10000 kPa | 0.00121 ± 3e-05 1/K
11000 kPa | 0.0012 ± 2.9e-05 1/K
12000 kPa | 0.00119 ± 2.9e-05 1/K
13000 kPa | 0.00118 ± 2.9e-05 1/K
14100 kPa | 0.00116 ± 2.9e-05 1/K
14500 kPa | 0.00116 ± 2.8e-05 1/K
16000 kPa | 0.00115 ± 2.8e-05 1/K
17000 kPa | 0.00114 ± 2.8e-05 1/K
18000 kPa | 0.00113 ± 2.8e-05 1/K
19000 kPa | 0.00112 ± 2.7e-05 1/K
20000 kPa | 0.00111 ± 2.7e-05 1/K
21000 kPa | 0.0011 ± 2.7e-05 1/K
22000 kPa | 0.00109 ± 2.7e-05 1/K
23000 kPa | 0.00108 ± 2.7e-05 1/K
24500 kPa | 0.00107 ± 2.6e-05 1/K
25000 kPa | 0.00107 ± 2.6e-05 1/K
26000 kPa | 0.00106 ± 2.6e-05 1/K
27000 kPa | 0.00105 ± 2.6e-05 1/K
28000 kPa | 0.00104 ± 2.6e-05 1/K
29000 kPa | 0.00104 ± 2.5e-05 1/K
30000 kPa | 0.00103 ± 2.5e-05 1/K

Cc1ccccc1 [toluene]
Settings | isobaric coefficient of expansion
500 kPa | 0.00104 ± 2.6e-05 1/K
1000 kPa | 0.00104 ± 2.5e-05 1/K
2000 kPa | 0.00103 ± 2.5e-05 1/K
3000 kPa | 0.00103 ± 2.5e-05 1/K
4000 kPa | 0.00102 ± 2.5e-05 1/K
5000 kPa | 0.00101 ± 2.5e-05 1/K
6000 kPa | 0.00101 ± 2.5e-05 1/K
7000 kPa | 0.001 ± 2.5e-05 1/K
8000 kPa | 0.000996 ± 2.4e-05 1/K
9000 kPa | 0.00099 ± 2.4e-05 1/K
10000 kPa | 0.000984 ± 2.4e-05 1/K
11000 kPa | 0.000977 ± 2.4e-05 1/K
12000 kPa | 0.000973 ± 2.4e-05 1/K
13000 kPa | 0.000967 ± 2.4e-05 1/K
14000 kPa | 0.000962 ± 2.4e-05 1/K
15000 kPa | 0.000957 ± 2.3e-05 1/K
16000 kPa | 0.000952 ± 2.3e-05 1/K
17000 kPa | 0.000947 ± 2.3e-05 1/K
18000 kPa | 0.000942 ± 2.3e-05 1/K
19000 kPa | 0.000937 ± 2.3e-05 1/K
20000 kPa | 0.000932 ± 2.3e-05 1/K
21000 kPa | 0.000928 ± 2.3e-05 1/K
22000 kPa | 0.000923 ± 2.3e-05 1/K
23000 kPa | 0.000918 ± 2.2e-05 1/K
24000 kPa | 0.000914 ± 2.2e-05 1/K
25000 kPa | 0.000908 ± 2.2e-05 1/K
26000 kPa | 0.000904 ± 2.2e-05 1/K
27000 kPa | 0.000903 ± 2.2e-05 1/K
28000 kPa | 0.000896 ± 2.2e-05 1/K
29000 kPa | 0.000896 ± 2.2e-05 1/K
30000 kPa | 0.000892 ± 2.2e-05 1/K
